Assay results published in publication PMC6767204, “Synthesis and Biological Evaluation of Disubstituted Pyrimidines as Selective 5-HT2C Agonists” (Molecules, 2019).
Read-outs that look alike come from different tables or passages of the source.

Legend:
[1] = target: T1, 5-HT2A receptor (Homo sapiens, UniProt P28223); assay: 5-HT receptor radioligand binding affinity assay, 2A; conditions: for SI, selectivity index, 2A: subtype Ki divided by 5-HT2C Ki
T1 construct: expressed in transfected cells; host or cells: HEK293 or CHO
Experimental: (§1) Eleven dilutions (5 x assay concentration) of the test and reference compounds (Table S1) were prepared in standard binding buffer (50 mM tris(hydroxymethyl)-aminomethane–HCl (Tris-HCl), 10 mM MgCl2, 1 mM ethylenediaminetetraacetate (EDTA), pH 7.4) by serial dilution: 0.05 nM, 0.5 nM, 1.5 nM, 5 nM, 15 nM, 50 nM, 150 nM, 500 nM, 1.5 μM, 5 μM, and 50 μM. The radioligand (Table S1) was diluted to five times the assay concentration in standard binding buffer. Aliquots (50 μL) of the radioligand were dispensed into the wells of a 96-well plate containing 100 μL of standard binding buffer. Triplicate aliquots (50 μL) of the test and reference compound dilutions were then added. Finally, crude membrane fractions (50 μL) of cells (HEK293 or CHO) expressing human recombinant receptors were dispensed into each well. A total 250 μL of the reaction mixtures was incubated at room temperature and shielded from light for 1.5 h, then harvested by rapid filtration onto Whatman GF/B glass fiber filters presoaked with 0.3% polyethyleneimine, by using a 96-well Brandel harvester.
(§2) Four rapid washes were performed with chilled standard binding buffer (500 μL) to decrease nonspecific binding. Filters were placed in 6 mL scintillation tubes and allowed to dry overnight. The next day, 4 ml of EcoScint scintillation cocktail (National Diagnostics) was added to each tube. The tubes were capped, labeled, and counted by liquid scintillation counting. The filter mats were dried, and the scintillant was melted onto the filters, then the radioactivity retained on the filters was counted in a Microbeta scintillation counter. The IC50 values were obtained by using the Prism 4.0 program (GraphPad Software, San Diego, CA) and converted into Ki values. Each compound was tested in triplicate at least.
(§3) 3. Radioligands and reference compounds for binding assay
(§4) Table S1. A list of 5-HT receptor radioligands and reference compounds for binding assay.
(§5) Receptor subtype Radioligand Reference compound
(§6) 1A [3H]8-OH-DPAT Methysergide
(§7) 2A [3H]Ketanserin Chlorpromazine
(§8) 2C [3H]Mesulergine Chlorpromazine

[2] = target: T2, 5-HT6 receptor (Homo sapiens, UniProt P50406); assay: 5-HT receptor radioligand binding affinity assay, 6; conditions: for SI, selectivity index, 6: subtype Ki divided by 5-HT2C Ki
T2 construct: expressed in transfected cells; host or cells: HEK293 or CHO
Experimental: as §1, §2, §3, §4, §5, §6, §7, §8

[3] = target: T3, 5-HT1A receptor (Homo sapiens, UniProt P08908); assay: 5-HT receptor radioligand binding affinity assay, 1A; conditions: for SI, selectivity index, 1A: subtype Ki divided by 5-HT2C Ki
T3 construct: expressed in transfected cells; host or cells: HEK293 or CHO
T3 sequence (P08908 1-422): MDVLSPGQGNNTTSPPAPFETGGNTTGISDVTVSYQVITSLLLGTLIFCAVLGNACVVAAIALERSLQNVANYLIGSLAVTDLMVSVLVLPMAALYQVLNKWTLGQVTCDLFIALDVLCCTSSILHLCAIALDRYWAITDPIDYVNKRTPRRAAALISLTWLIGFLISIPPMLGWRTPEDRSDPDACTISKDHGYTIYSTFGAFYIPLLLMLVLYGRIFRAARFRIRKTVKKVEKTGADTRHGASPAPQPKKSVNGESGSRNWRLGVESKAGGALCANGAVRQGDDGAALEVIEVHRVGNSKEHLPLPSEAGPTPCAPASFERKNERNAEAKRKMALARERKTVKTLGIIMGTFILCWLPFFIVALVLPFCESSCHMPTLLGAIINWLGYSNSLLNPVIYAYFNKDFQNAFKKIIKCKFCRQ
Experimental: as §1, §2, §3, §4, §5, §6, §7, §8

[4] = target: T4, 5-HT3 receptor (Homo sapiens, UniProt P46098); assay: 5-HT receptor radioligand binding affinity assay, 3; conditions: for SI, selectivity index, 3: subtype Ki divided by 5-HT2C Ki
T4 construct: expressed in transfected cells; host or cells: HEK293 or CHO
T4 sequence (P46098 24-478): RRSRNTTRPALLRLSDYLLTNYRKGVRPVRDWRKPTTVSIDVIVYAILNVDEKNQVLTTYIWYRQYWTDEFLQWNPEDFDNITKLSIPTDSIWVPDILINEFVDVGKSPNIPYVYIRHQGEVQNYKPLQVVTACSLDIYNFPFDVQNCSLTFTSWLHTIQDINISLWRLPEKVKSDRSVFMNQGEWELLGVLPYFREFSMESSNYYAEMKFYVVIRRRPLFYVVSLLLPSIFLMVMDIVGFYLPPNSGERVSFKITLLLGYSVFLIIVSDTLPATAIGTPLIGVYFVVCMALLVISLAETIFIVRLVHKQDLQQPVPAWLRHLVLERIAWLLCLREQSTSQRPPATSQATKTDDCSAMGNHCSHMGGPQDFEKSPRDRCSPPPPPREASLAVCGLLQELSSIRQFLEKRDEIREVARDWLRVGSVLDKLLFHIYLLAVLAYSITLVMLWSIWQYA
Experimental: as §1, §2, §3, §4, §5, §6, §7, §8

[5] = target: T5, 5-HT1D receptor (Homo sapiens, UniProt P28221); assay: 5-HT receptor radioligand binding affinity assay, 1D; conditions: for SI, selectivity index, 1D: subtype Ki divided by 5-HT2C Ki
T5 construct: expressed in transfected cells; host or cells: HEK293 or CHO
Experimental: as §1, §2, §3, §4, §5, §6, §7, §8

[6] = Microsomal stability; format: in vitro ADME; conditions: pH 7.4, human liver microsomes, read-out: HLM %Remaining @ 1 μM after 0.5 h
Experimental: To human liver microsomes (0.5 mg/mL) were added 0.1 M phosphate buffer (pH 7.4) and tested compounds (1 μM).

[7] = target: T6, 5-HT1B receptor (Homo sapiens, UniProt P28222); assay: 5-HT receptor radioligand binding affinity assay, 1B
T6 construct: expressed in transfected cells; host or cells: HEK293 or CHO

[8] = target: T7, 5-HT2B receptor (Homo sapiens, UniProt P41595); assay: 5-HT receptor radioligand binding affinity assay, 2B; conditions: for SI, selectivity index, 2B: subtype Ki divided by 5-HT2C Ki
T7 construct: expressed in transfected cells; host or cells: HEK293 or CHO
Experimental: as §1, §2, §3, §4, §5, §6, §7, §8

[9] = Plasma stability; format: in vitro ADME; conditions: human plasma, 37 °C
[10] = target: T8, 5-HT2C receptor (Homo sapiens, UniProt P28335); assay: 5-HT2C receptor cell-based functional assay (agonist mode, fluorescence-based); conditions: Table 2; serotonin as reference compound
T8 sequence (P28335 33-458): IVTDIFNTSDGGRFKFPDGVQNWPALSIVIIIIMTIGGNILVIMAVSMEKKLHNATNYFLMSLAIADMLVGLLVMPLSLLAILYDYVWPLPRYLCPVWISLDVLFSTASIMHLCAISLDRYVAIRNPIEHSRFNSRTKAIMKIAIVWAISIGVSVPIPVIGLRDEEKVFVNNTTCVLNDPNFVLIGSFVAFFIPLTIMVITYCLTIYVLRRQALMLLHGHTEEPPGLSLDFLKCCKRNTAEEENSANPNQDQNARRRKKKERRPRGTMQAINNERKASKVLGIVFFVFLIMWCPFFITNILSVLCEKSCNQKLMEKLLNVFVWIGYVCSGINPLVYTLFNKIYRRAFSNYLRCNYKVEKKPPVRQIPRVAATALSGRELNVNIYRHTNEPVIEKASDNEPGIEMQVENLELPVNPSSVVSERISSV
Experimental: The synthesized compounds were tested in agonist mode with the 5-HT2C receptor assay using recombinant human HEK-293 cells serviced by either Eurofins Cerep or DGMIF (Daegu-Gyeongbuk Medical Innovation Foundation). All the experiments were duplicated.

[11] = target: T8, 5-HT2C receptor; assay: 5-HT receptor radioligand binding affinity assay, 2C; design: expressed in transfected cells; conditions: for %Binding at 10 μM, 2C: Table 3; for %binding / Ki: Table 2; for SI, selectivity index, 2C: subtype Ki divided by 5-HT2C Ki
Experimental: as §1, §2, §3, §4, §5, §6, §7, §8

[12] = test system: five human CYP450 isozymes; assay: CYP inhibition, all tested isozymes; conditions: all the tested CYP isozymes
Experimental: CYP inhibition values against five human CYP450 isozymes were recorded as % remaining activity values of the given isozymes.
After incubation at 37 °C for 5 min, NADPH generation system solution was also added and incubated at 37 °C for 15 min again. To terminate the reaction, acetonitrile including internal standard (Terfenadine) was added, and the solution was centrifuged for 5 min (14,000 rpm, 4 °C).

[13] = target: T9, 5-HT5A receptor (Homo sapiens, UniProt P47898); assay: 5-HT receptor radioligand binding affinity assay, 5A
T9 construct: expressed in transfected cells; host or cells: HEK293 or CHO
Experimental: as §1, §2, §3
(§9) Table S1. A list of 5-HT receptor radioligands and reference compounds for binding assay. […]

[14] = target: T10, 5-HT1E receptor (Homo sapiens, UniProt P28566); assay: 5-HT receptor radioligand binding affinity assay, 1E
T10 construct: expressed in transfected cells; host or cells: HEK293 or CHO
Experimental: as §1, §2, §3, §9

[15] = target: T11, 5-HT7 receptor (Homo sapiens, UniProt P34969); assay: 5-HT receptor radioligand binding affinity assay, 7; conditions: for SI, selectivity index, 7: subtype Ki divided by 5-HT2C Ki
T11 construct: expressed in transfected cells; host or cells: HEK293 or CHO
Experimental: as §1, §2, §3, §4, §5, §6, §7, §8

[16] = target: T1, 5-HT2A receptor; design: method as in PMID 28846591; conditions: Figure 2; cited from earlier work

T2 sequence (P50406 whole entry): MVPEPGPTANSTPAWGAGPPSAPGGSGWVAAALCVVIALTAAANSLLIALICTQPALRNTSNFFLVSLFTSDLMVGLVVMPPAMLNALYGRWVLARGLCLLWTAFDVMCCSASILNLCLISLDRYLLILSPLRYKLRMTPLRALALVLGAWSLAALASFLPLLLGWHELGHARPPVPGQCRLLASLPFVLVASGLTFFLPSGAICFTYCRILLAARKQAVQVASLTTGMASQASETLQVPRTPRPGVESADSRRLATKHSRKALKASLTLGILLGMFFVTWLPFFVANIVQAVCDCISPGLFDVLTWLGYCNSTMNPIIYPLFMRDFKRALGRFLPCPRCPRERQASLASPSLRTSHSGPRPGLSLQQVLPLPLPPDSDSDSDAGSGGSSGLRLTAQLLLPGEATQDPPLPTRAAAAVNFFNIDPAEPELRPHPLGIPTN
T6 sequence (P28222 whole entry): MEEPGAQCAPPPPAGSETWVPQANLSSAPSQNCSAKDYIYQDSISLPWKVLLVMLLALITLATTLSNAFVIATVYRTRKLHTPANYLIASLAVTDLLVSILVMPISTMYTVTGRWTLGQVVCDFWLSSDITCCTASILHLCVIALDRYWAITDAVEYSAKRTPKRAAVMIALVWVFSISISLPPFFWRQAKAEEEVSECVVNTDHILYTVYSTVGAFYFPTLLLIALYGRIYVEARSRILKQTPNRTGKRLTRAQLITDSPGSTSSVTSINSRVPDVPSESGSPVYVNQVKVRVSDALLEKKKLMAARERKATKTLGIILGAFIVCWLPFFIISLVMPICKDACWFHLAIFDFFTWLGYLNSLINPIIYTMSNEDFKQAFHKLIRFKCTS
T1 sequence (P28223 whole entry): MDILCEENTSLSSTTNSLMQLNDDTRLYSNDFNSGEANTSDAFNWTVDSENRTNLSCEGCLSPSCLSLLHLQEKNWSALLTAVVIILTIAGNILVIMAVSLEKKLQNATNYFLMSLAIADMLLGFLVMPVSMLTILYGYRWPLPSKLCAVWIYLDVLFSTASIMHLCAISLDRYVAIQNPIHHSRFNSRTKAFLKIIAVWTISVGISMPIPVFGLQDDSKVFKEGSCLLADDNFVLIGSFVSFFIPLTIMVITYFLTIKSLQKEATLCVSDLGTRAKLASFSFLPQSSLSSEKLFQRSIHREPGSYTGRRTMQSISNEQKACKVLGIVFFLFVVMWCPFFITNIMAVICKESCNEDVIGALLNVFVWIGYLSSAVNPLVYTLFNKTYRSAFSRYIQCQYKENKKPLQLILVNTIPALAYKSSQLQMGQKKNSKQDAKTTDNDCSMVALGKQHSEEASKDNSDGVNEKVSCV
T5 sequence (P28221 whole entry): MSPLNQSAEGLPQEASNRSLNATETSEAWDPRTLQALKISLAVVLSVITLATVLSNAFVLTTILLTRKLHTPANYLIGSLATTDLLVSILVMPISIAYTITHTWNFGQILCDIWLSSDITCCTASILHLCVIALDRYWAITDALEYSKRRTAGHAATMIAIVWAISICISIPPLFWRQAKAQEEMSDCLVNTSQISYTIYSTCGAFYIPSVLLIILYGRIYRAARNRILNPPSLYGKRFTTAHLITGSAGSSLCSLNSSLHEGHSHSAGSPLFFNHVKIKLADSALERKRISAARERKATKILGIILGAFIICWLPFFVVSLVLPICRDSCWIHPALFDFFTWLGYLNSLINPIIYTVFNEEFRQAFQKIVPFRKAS
T11 sequence (P34969 whole entry): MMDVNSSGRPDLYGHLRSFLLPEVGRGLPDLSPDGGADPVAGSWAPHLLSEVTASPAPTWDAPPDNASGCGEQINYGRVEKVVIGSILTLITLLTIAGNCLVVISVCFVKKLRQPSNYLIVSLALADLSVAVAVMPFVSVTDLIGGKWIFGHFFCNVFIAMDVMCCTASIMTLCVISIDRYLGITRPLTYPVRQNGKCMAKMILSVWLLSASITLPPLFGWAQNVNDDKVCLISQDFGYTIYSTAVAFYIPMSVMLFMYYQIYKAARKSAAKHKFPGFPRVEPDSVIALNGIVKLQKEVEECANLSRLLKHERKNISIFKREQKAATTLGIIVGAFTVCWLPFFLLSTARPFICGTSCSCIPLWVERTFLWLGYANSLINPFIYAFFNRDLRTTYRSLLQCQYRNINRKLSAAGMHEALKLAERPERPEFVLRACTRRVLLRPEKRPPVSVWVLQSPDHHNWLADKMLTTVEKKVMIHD
T7 sequence (P41595 whole entry): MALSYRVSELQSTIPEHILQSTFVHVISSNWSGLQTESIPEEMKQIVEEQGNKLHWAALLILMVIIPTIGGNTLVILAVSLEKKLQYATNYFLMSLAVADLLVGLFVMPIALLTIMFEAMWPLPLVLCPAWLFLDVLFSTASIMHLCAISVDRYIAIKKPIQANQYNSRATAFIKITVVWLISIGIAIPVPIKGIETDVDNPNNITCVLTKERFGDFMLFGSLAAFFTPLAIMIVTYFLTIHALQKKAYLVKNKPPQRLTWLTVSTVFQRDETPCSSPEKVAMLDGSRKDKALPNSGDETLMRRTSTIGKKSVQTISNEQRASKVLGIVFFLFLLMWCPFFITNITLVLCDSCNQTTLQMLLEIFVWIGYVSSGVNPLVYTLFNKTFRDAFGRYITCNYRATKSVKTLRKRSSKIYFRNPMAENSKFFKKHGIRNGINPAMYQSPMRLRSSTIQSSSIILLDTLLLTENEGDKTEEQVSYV
T9 sequence (P47898 whole entry): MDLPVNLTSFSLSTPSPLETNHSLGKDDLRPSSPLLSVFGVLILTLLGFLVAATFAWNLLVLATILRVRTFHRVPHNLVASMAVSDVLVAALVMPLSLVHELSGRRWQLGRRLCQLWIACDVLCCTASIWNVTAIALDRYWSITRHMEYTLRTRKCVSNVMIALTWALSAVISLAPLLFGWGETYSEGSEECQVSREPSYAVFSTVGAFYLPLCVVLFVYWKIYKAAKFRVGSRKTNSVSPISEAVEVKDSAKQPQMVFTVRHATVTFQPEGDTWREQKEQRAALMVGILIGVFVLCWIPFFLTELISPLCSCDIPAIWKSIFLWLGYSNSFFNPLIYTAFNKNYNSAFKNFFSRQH
T10 sequence (P28566 whole entry): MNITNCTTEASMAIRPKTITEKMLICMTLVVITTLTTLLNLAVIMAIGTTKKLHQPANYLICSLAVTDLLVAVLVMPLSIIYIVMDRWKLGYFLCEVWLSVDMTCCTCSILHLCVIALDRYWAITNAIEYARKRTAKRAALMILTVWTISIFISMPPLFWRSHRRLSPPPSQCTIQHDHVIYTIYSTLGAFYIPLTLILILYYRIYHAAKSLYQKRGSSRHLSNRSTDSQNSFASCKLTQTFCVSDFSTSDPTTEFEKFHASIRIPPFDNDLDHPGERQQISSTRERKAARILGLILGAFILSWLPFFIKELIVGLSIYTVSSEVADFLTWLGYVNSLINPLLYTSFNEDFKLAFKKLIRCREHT

Structure (SMILES)	Ki [1] [nM]	%Binding at 10 μM, 2A [1] [%]	SI, selectivity index, 2A [1]	Ki [2] [nM]	%Binding at 10 μM, 6 [2] [%]	SI, selectivity index, 6 [2]	Ki [3] [nM]	%Binding at 10 μM, 1A [3] [%]	SI, selectivity index, 1A [3]	Ki [4] [nM]	%Binding at 10 μM, 3 [4] [%]	SI, selectivity index, 3 [4]	Ki [5] [nM]	%Binding at 10 μM, 1D [5] [%]	SI, selectivity index, 1D [5]	%Binding at 10 μM, 1B [7]	Ki [8] [nM]	%Binding at 10 μM, 2B [8] [%]	SI, selectivity index, 2B [8]	%Binding at 10 μM, 2C [11] [%]	other results
C[C@@H](Oc1nc(N2CCCNCC2)ncc1F)c1cccc(F)c1 [10a, (R)-1-(5-fluoro-4-(1-(3-fluorophenyl)ethoxy)pyrimidin-2-yl)-1,4-diazepane]	1280	75.5	162.5	348	50.7	44.1	578	74.1	73.2	323	89.0	40.9	679	71.4	85.9	56.1%	83	98.0	10.5	81.3	remaining at 0.5 h, 1 μM [6]: 96.6%; Ki [7]: 3240 nM; SI, selectivity index, 1B ([7]; subtype Ki divided by 5-HT2C Ki): 409.7; remaining at 0.5 h, 10 μM ([9]; 0.5 h, read-out: Plasma Stability %Remaining @ 10 μM after 0.5 h): 99.9%; remaining at 2 h, 10 μM ([9]; 2 h, read-out: Plasma Stability %Remaining @ 10 μM after 2 h): 98%; %activation [10]: 81.0%; selectivity for other 5-HT receptor subtypes, difference in potency ([11]; 5-HT2C versus other 5-HT receptor subtypes): greater than 10 fold; %binding [11]: 81.3%; Ki [11]: 7.9 nM; SI, selectivity index, 2C [11]: 1.0; %remaining activity of isozymes [12]: > 60%; %Binding at 10 μM, 5A [13]: 22.5 /ND %; %Binding at 10 μM, 1E [14]: 43.1 /ND^b %; Ki [15]: 1020 nM; %Binding at 10 μM, 7 [15]: 61.3%; SI, selectivity index, 7 [15]: 128.6
C[C@@H]1CNCCN1c1ncc(F)c(O[C@H](C)c2ccc(F)cc2)n1 [compound 8, reference compound]	511	85.3	86.6	30	56.7	5.1	271	89.1	45.9	543	83.4	92.0	1050	83.4	178.3	4.9 /ND^b %	38	98.1	6.4	89.0	Ki [16]: 1280 nM; %binding [11]: 89.0%; Ki [11]: 5.9 nM; SI, selectivity index, 2C [11]: 1.0; %Binding at 10 μM, 5A [13]: 18.5 /ND^b %; %Binding at 10 μM, 1E [14]: 48.0 /ND^b %; Ki [15]: 528 nM; %Binding at 10 μM, 7 [15]: 63.4%; SI, selectivity index, 7 [15]: 89.5
